According to US20100196586A1, “FOODSTUFF COMPOSITION TO IMPROVE DIGESTIBILITY OF FOODSTUFF LIPIDS” (ISL-INNOVATION SANTE LIPIDES, priority 2007, published 2010):

T1: colipase dependent pancreatic lipase (Sus scrofa, UniProt P00591)
T1 sequence (P00591 1-450): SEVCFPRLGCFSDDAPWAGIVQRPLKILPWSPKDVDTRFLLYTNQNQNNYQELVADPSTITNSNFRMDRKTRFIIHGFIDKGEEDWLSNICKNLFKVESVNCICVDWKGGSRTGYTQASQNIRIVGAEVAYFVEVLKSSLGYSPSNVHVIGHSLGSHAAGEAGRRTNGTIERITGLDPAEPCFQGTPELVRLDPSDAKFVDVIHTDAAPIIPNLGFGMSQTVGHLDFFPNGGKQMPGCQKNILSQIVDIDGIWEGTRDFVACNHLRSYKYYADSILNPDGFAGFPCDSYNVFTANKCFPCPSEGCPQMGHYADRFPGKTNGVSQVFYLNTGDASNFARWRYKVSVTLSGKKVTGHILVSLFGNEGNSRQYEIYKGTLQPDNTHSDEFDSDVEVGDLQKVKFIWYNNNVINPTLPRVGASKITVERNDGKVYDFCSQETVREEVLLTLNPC
T1 sequence (P02703 23-112 partner): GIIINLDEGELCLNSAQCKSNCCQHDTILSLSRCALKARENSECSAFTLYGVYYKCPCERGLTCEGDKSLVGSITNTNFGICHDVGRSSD

B1: recombinant gastric lipase: recombinant dog gastric lipase (Merispase, Meristem) (protein, UniProt P80035 20-398, looked up)
Gastric triacylglycerol lipase: LFGKLHPTNPEVTMNISQMITYWGYPAEEYEVVTEDGYILGIDRIPYGRKNSENIGRRPVAFLQHGLLASATNWISNLPNNSLAFILADAGYDVWLGNSRGNTWARRNLYYSPDSVEFWAFSFDEMAKYDLPATIDFILKKTGQDKLHYVGHSQGTTIGFIAFSTNPKLAKRIKTFYALAPVATVKYTETLLNKLMLVPSFLFKLIFGNKIFYPHHFFDQFLATEVCSRETVDLLCSNALFIICGFDTMNLNMSRLDVYLSHNPAGTSVQNVLHWSQAVKSGKFQAFDWGSPVQNMMHYHQSMPPYYNLTDMHVPIAVWNGGNDLLADPHDVDLLLSKLPNLIYHRKIPPYNHLDFIWAMDAPQAVYNEIVSMMGTDNK

Experiments:
gastric lipase = assay: Gastric lipolysis of triolein emulsions stabilized by phospholipids, with purified gastric lipases or gastric juices; type: biochemical, human
Source text: (§1) The compounds have been tested in vitro in different experimental conditions for their ability to promote the action of three major lipolytic enzymes of the digestive tract, i.e., gastric lipase, colipase-dependent pancreatic lipase, bile salt stimulated lipase (BSSL), and their isoforms and variants.
(§2) Different lipidic emulsions have been prepared by sonication of a mixture of triolein (TO) (98.7%), cholesterol (0.5%) and phospholipids (0.8%).
(§3) The lipolysis tests have been carried out in vitro in conditions that mimic the physiology of the human digestive tract, either healthy or with pancreatic insufficiency (PI).
Gastric lipolysis in the presence of gastric lipase has been carried out with purified lipases or gastric juices from different subjects at pH 5.40, at 37° C. for 60 minutes with a gastric lipase (U/mL)/lipids (micromoles of TO) ratio of 2.
(§4) Lipolysis by the three main digestive tract lipases has also been tested in more complex conditions, i.e. in the presence of lipidic emulsions with a mixture of proteins plus lactose added in proportions that are found in normal or medically assisted nutrition.

[1] = system: bile salt stimulated lipase (BSSL); assay: Intestinal lipolysis of triolein emulsions by bile salt stimulated lipase; type: biochemical, human
Source text: as §1, §2, §3
[…] Several variants of BSSL have been tested, numbered 1 to 8.
as §4

[2] = target: T1, colipase dependent pancreatic lipase; assay: Intestinal lipolysis of triolein emulsions by colipase dependent pancreatic lipase or pancreatine; type: biochemical, pig; conditions: for yield of pancreatic lipolysis (percentage of hydrolysis) compared with PC P/O emulsion: normal physiological conditions, two forms of pig pancreatic lipase (pure lipase or powder of pancreas), FIG. 3
Source text: as §1, §2, §3
Intestinal lipolysis in the presence of colipase dependent pancreatic lipase (lipase/colipase 1/1 molar ratio) or of pig pancreatic extract (pancreatine) was conducted at pH […] at 37° C. for 15 minutes, with a pancreatic lipase (U/mL)/micromoles of TO ratio of 20, and in the presence of pig bile in sufficient quantity for a bile salt concentration of 2 or 8 mM.
as §4

[3] = cited from earlier work
[4] = gastric juices of subject, pH 5.40, 37° C., 60 minutes, FIG. 1
[5] = conditions of pancreatic insufficiency, mixture of pure bile salts, FIG. 6
[6] = gastric juices of different subjects, irrespective of the origin of gastric juice, FIG. 2

Molecule | yield of gastric lipolysis (percentage of hydrolysis) compared with the control CT emulsion (gastric lipase; [4]) | yield of lipolysis by BSSL (percentage of hydrolysis) compared with PC P/O emulsion [1, 5] | yield of lipolysis by BSSL (percentage of hydrolysis) compared with PC P/O emulsion ([1]; normal conditions, FIG. 4) | yield of gastric lipolysis (percentage of hydrolysis) compared with the control CT emulsion (gastric lipase; [6]) | yield of pancreatic lipolysis (percentage of hydrolysis) compared with PC P/O emulsion [2] | further results
CCCCCCCC/C=C\CCCCCCCC(=O)OC[C@@H](O)COP(=O)(O)O [LPAo, oleyl lysophosphatidic acid] | significantly higher |  |  |  |  | 
DHA phosphatidylethanolamine [PE DHA] |  | significantly higher | significantly higher |  |  | 
egg-derived lysophosphatidylcholine [LPCO] | significantly higher | significantly higher | significantly higher | significantly higher |  | 
lysophosphatidylinositol [LPI] | significantly higher | significantly higher | significantly higher | significantly higher | significantly higher | activator effect in the presence of a mixture of protein plus lactose ([1]; BSSL, complex environment compared with simple emulsion): identical or even maximized; activator effect on different variants of BSSL (1 to 8) compared with PC P/O ([1]; normal conditions (A) or conditions of pancreatic insufficiency (B), efficacy varies with type of BSSL, FIG. 11): confirmed; yield of lipolysis by BSSL (percentage of hydrolysis) compared with PC P/O and complex PC P/O ([1]; purified human BSSL, pH 7.00, bile salts 8 mM (normal) or 2 mM (pancreatic insufficiency), with or without lactose and milk proteins, FIG. 9): significantly higher; effect of the dose of LPI on the yield of gastric lipolysis of the LHO emulsion (gastric lipase; LPI 0.1, 0.4 and 0.8% of total lipids, total phospholipids 0.8% of total lipids, gastric juices of subjects, FIG. 12): increase with increasing concentrations of LPI; yield of gastric lipolysis (percentage of hydrolysis) compared with PC P/O and complex PC P/O (gastric lipase; different human gastric juices, simple emulsions and complex emulsions (lactose and milk proteins), FIG. 7): significantly higher; activator effect in the presence of a mixture of protein plus lactose (gastric lipase; gastric lipase, complex environment compared with simple emulsion): identical or even maximized; quantity at which the activator effect seems optimal (gastric lipase; gastric lipolysis of LHO/LPI emulsions, dose dependent): 0.8 % of total lipids; effect on gastric lipase degraded at its N-terminal end (yield of gastric lipolysis vs CT and/or PC P/O) (gastric lipase; purified gastric lipases or juices of different subjects with different degrees of N-terminal degradation, FIG. 10): reactivates degraded gastric lipase; yield of pancreatic lipolysis (percentage of hydrolysis) compared with PC P/O ([2]; conditions of pancreatic insufficiency, purified lipase, intestinal pH values typical of pancreatic insufficiency, FIG. 5): significantly higher; activator effect in the presence of a mixture of protein plus lactose ([2]; pancreatic lipase, complex environment compared with simple emulsion): identical or even maximized
lysophosphatidylserine [LPS] |  |  |  |  | significantly higher | 
B1 |  |  |  |  |  | increase of the absorption level of lipids ([3]; administered together with pancreatic extracts, in 7 of the 11 patients studied): 17%; rate of absorption of lipids ([3]; subjects suffering from cystic fibrosis, alone, 600 mg/day, 28% without supplement): 50%
